In US20210325406A1 (priority 2018, published 2021):
Values joined by “and” are separate entries in the source; they are usually repeats but may differ in a detail not shown here. Identical values can stand only once. “Also recorded” adds a separate entry of the source. Like-named read-outs stand apart in the source and are kept apart here.

Tests used:
Au(III) embedded MspA-M [1] = target: T1, Au(III) embedded MspA-M (Mycolicibacterium smegmatis, UniProt A0QR29, D117N/D118M/D120N/D145R/D161R/E166K); assay type: binding
Au(III) embedded MspA-M [2] = target: T1, Au(III) embedded MspA-M; assay type: binding; remark: listed apart in the source
[3] = target: [AuCl4]− embedded MspA-M nanopore (Mycolicibacterium smegmatis, UniProt A0QR29, D117N/D118M/D120N/D145R/D161R/E166K)
Sequence of [AuCl4]− embedded MspA-M nanopore (A0QR29 28-211 D117N/D118M/D120N/D145R/D161R/E166K): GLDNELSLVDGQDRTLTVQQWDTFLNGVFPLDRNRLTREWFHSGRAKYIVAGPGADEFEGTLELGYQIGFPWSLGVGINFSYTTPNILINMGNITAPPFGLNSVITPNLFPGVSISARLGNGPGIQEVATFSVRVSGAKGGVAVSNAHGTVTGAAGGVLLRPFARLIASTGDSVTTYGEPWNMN

T1 sequence (A0QR29 28-211 D117N/D118M/D120N/D145R/D161R/E166K limits assumed): as the sequence (A0QR29 28-211 D117N/D118M/D120N/D145R/D161R/E166K) above

In the case of `NC(=O)C[C@H](N)C(=O)O` [L-asparagine, reference compound], the “events like state 3 / extra sensing signals” value (Au(III) embedded MspA-M [1]) is reported as “No extra sensing signals; also recorded: no events at all like state 3”.

In the case of `NCC(=O)O` [L-glycine, reference compound], the “events like state 3 / extra sensing signals” value (Au(III) embedded MspA-M [1]) is reported as “No extra sensing signals; also recorded: no events at all like state 3”.

With `CSCC[C@H](N)C(=O)O` [L-Methionine, L-methionine] the “absolute blockage amplitude from single L-methionine” value (Au(III) embedded MspA-M [1]) was “approximately 37 pA”, the “amplitude, times larger than previously reported amino acid sensing using engineered α-HL” value (Au(III) embedded MspA-M [1]) was “about 10 times” and the “dwell time of state 3, three independent measurements” value (Au(III) embedded MspA-M [1]) was 10.05 ± 1.73 ms. The “ΔI1-3, three independent measurements” value (Au(III) embedded MspA-M [1]) was 48.67±0.91 pA.

`N[C@@H](CS)C(=O)O` [L-Cysteine, L-cysteine] was tested, and the “ΔI0−1, cys/I0” value (Au(III) embedded MspA-M [2]) was 0.104±0.008 and 0.105 ± 0.008 and 0.104 ± 0.007 and the “ΔI1−1, Cys” value (Au(III) embedded MspA-M [2]) was 13.7 pA and 13.1 pA and 14.2 pA.

In the case of `N[C@@H](CCS)C(=O)O` [L-Homocysteine, L-homocysteine], the “ΔI0−1, Hcy/I0” value (Au(III) embedded MspA-M [2]) is reported as 0.13±0.01 and 0.123 ± 0.01 and 0.129 ± 0.01 and 0.131 ± 0.01 and the “ΔI1−1, Hcy” value (Au(III) embedded MspA-M [2]) is reported as 21.8 pA and 22.7 pA and 23.6 pA.

`N[C@@H](CCC(=O)N[C@@H](CS)C(=O)NCC(=O)O)C(=O)O` [L-Glutathione, L-glutathione] was tested, and the “ΔI0−1, GSH/I0” value (Au(III) embedded MspA-M [2]) was 0.167 ± 0.023 and 0.151 ± 0.015 and 0.145 ± 0.015 and the “ΔI1−1, GSH” value (Au(III) embedded MspA-M [2]) was 23.3 pA and 29.2 pA and 25.1 pA.

B1: 78-nt: 78 nucleotide ssDNA composed of a random sequence (Table 6) (nucleic acid)
DNA: AAGCAGACAGGCGGGAAGGTTTTTTTTCTAGAGGGGAATTGTTATCCGCTCACAATTCCCCTATAGTGAGTCGTATTA
modifications: DNA, backbone and methylation of C not given here
Molecule B1 has a ΔI/I0 ([3]; 78-nt ssDNA 4 μM, 10 μM HAuCl4, +100 mV, Blockade level 0) of 0.23 ± 0.027, a Mean dwell time ([3]; 78-nt, Blockade level 0) of 0.23 ± 0.025 ms and a Mean dwell time ([3]; 78-nt, Blockade level 1) of 0.97 ± 0.17 ms. For the same molecule, the ΔI/I0 ([3]; 78-nt, Blockade level 1) was 0.37 ± 0.042, the Mean dwell time ([3]; 78-nt, Blockade level 2) was 5.52 ± 1.14 ms and the ΔI/I0 ([3]; 78-nt, Blockade level 2) was 0.59 ± 0.019. The Mean dwell time ([3]; 78-nt, Blockade level 3) was 72.81 ± 13.98 ms and the ΔI/I0 ([3]; 78-nt, Blockade level 3) was 0.88 ± 0.035.
